Measurements as given in patent US20060229433A1, “Modified antiviral peptides with increased activity and cell membrane affinity” (priority 2003, published 2006).
“And” between values parts separate entries of the source, which are not always exact repeats. Equal entries are not always repeated. Square brackets hold non-standard residues; d marks the D form. Peptide text beside a SMILES is read from it. Ava = NCCCCC(=O)O

Tests used:
Format in all cases: cell-based
HIV-1 NL 4-3 [1] = experiment: HIV-1 infection of C8166 cells (syncytia formation, p24 ELISA) with HIV-1 NL 4-3; design: key to syncitia formed, Day 4 / syncitia formed, Day 5 / syncitia formed, Day 6 / syncitia formed, Day 7: ++, +, (+), (+)− and − represent decreasing numbers of syncitia formed; ++, +, (+), (+)− and − represent decreasing numbers of syncitia formed; ++, +, (+), (+)− and − represent decreasing numbers of syncitia formed; ++, +, (+), (+)− and − represent decreasing numbers of syncitia formed; ++, +, (+), (+)− and − represent decreasing numbers of syncitia formed
Protocol: (§1) HIV-1 NL 4-3 isolate (Adachi et al., 1986; Barré-Sinoussi et al., 1983) and highly cytopathic Zairian HIV-1 NDK isolate (Ellrodt et al., 1984) was propagated in permissive CEM cells (Nara et al., 1987). Uninfected CEM and C8166 (Salahuddin et al., 1983) were maintained in RPMI 1640 (R10) with ultraglutamine (cambrex, Vervier, Belgium), penicillin (100 U/ml), streptomycin (100 μg/ml), and 10% heat-inactivated fetal calf serum (Cambrex).
(§2) Samples of 3×10^5/100 μL C8166 cells were preincubated in 96-well microtiter plates in culture medium containing various concentrations of peptide. After a 1 h treatment at 37° C., 100 μl of diluted viral solution of HIV-1 was added. The cells were exposed to the virus for 1 h at 37° C. at a multiplicity of infection of 1000 TCID50 per ml. The cells were washed three times and cultured at 3×10^5/ml of R10 with the treatment in 24-well plates incubated at 37° C. C8166 culture medium was replaced at Day-4 post-infection. The treatment was permanent before virus adsorption, during virus adsorption and after infection. Assays on C8166 cells have been performed at least twice and in duplicate. Toxicity was evaluated by daily cell count and trypan-blue exclusion assay. Infection of C8166 T-cells with HIV-1 was assessed by virus-induced cytopathic effects (syncytia formation) and by quantification of cell free p24 viral protein in the culture supernatants. Measurements of HIV-1 p24^gag concentration in the culture supernatants were achieved by ELISA (ALLIANCE® HIV-1 p24 kit, Perkin Elmer, life sciences, USA).

HIV-1 NDK = experiment: HIV-1 infection of C8166 cells (syncytia formation, p24 ELISA) with HIV-1 NDK; design: key to syncitia formed, Day 4 / syncitia formed, Day 5 / syncitia formed, Day 6 / syncitia formed, Day 7: ++, +, (+), (+)− and − represent decreasing numbers of syncitia formed; ++, +, (+), (+)− and − represent decreasing numbers of syncitia formed; ++, +, (+), (+)− and − represent decreasing numbers of syncitia formed; ++, +, (+), (+)− and − represent decreasing numbers of syncitia formed; ++, +, (+), (+)− and − represent decreasing numbers of syncitia formed; conditions: for P 24: P 24 after Day 7
Protocol: as §1, §2

HIV-1 NL 4-3 [2] = experiment: HIV-1 infection of C8166 cells (syncytia formation, p24 ELISA) with HIV-1 NL 4-3; design: key: ++, +, (+), (+)− and − represent decreasing numbers of syncitia formed; ++, +, (+), (+)− and − represent decreasing numbers of syncitia formed; ++, +, (+), (+)− and − represent decreasing numbers of syncitia formed; ++, +, (+), (+)− and − represent decreasing numbers of syncitia formed; ++, +, (+), (+)− and − represent decreasing numbers of syncitia formed; conditions: Table 6
Protocol: as §1, §2

[3] = C8166 cells, HIV-1 subtype B NL 4-3, Table 9, two lines = tested twice, 8 days apart

NCC(=O)N1CCC[C@H]1C(=O)NCC(=O)NCCCCC(=O)O [GPG valeric acid, GPG-NHCH2CH2CH2CH2COOH] (H-GPG[Ava]-OH; N-terminus assumed)
Day 7 syncitia formed (HIV-1 NL 4-3 [1]; 0.005 μM, Table 6): ++/T | syncitia formed, Day 4 (HIV-1 NL 4-3 [1]; 0.01 μM, C8166 cells): − | syncitia formed, Day 5 (HIV-1 NL 4-3 [1]; 0.01 μM, C8166 cells): (+) | syncitia formed, Day 6 (HIV-1 NL 4-3 [1]; 0.01 μM, C8166 cells): + | syncitia formed, Day 7 (HIV-1 NL 4-3 [1]; 0.01 μM, Day 7, C8166 cells): ++ | syncitia formed, Day 4 (HIV-1 NL 4-3 [1]; 0.05 μM, C8166 cells): − | syncitia formed, Day 5 (HIV-1 NL 4-3 [1]; 0.05 μM, C8166 cells): − | syncitia formed, Day 6 (HIV-1 NL 4-3 [1]; 0.05 μM, C8166 cells): (+) | syncitia formed, Day 7 (HIV-1 NL 4-3 [1]; 0.05 μM, Day 7, C8166 cells): + | P 24 (HIV-1 NL 4-3 [1]; 0.05 μM, P 24 after Day 7, C8166 cells): 3810 pg/mL and 2300 pg/mL | syncitia formed, Day 4 (HIV-1 NL 4-3 [1]; 0.1 μM, C8166 cells): − | syncitia formed, Day 5 (HIV-1 NL 4-3 [1]; 0.1 μM, C8166 cells): − | syncitia formed, Day 6 (HIV-1 NL 4-3 [1]; 0.1 μM, C8166 cells): (+) | syncitia formed, Day 7 (HIV-1 NL 4-3 [1]; 0.1 μM, Day 7, C8166 cells): + | P 24 (HIV-1 NL 4-3 [1]; 0.1 μM, P 24 after Day 7, C8166 cells): 108 pg/mL and 130 pg/mL | syncitia formed, Day 4 (HIV-1 NL 4-3 [1]; 0.5 μM, C8166 cells): − | syncitia formed, Day 5 (HIV-1 NL 4-3 [1]; 0.5 μM, C8166 cells): − | syncitia formed, Day 6 (HIV-1 NL 4-3 [1]; 0.5 μM, C8166 cells): − | syncitia formed, Day 7 (HIV-1 NL 4-3 [1]; 0.5 μM, Day 7, C8166 cells): (+) | syncitia formed, Day 4 (HIV-1 NL 4-3 [1]; 1 μM, C8166 cells): − | syncitia formed, Day 5 (HIV-1 NL 4-3 [1]; 1 μM, C8166 cells): − | syncitia formed, Day 6 (HIV-1 NL 4-3 [1]; 1 μM, C8166 cells): − | syncitia formed, Day 7 (HIV-1 NL 4-3 [1]; 1 μM, Day 7, C8166 cells): − | P 24 (HIV-1 NL 4-3 [1]; 1 μM, P 24 after Day 7, C8166 cells): 86 pg/mL and 74 pg/mL | syncitia formed, Day 4 (HIV-1 NL 4-3 [1]; 5 μM, C8166 cells): − | syncitia formed, Day 5 (HIV-1 NL 4-3 [1]; 5 μM, C8166 cells): − | syncitia formed, Day 6 (HIV-1 NL 4-3 [1]; 5 μM, C8166 cells): − | syncitia formed, Day 7 (HIV-1 NL 4-3 [1]; 5 μM, Day 7, C8166 cells): − | P 24 (HIV-1 NL 4-3 [1]; 5 μM, P 24 after Day 7, C8166 cells): 60 pg/mL and 34 pg/mL | IC50 (HIV-1 NL 4-3 [1]; [3]): 10 nM | IC100 (HIV-1 NL 4-3 [1]; [3]): 0.5 µM and 1 µM | P 24 (HIV-1 NL 4-3 [1]; Day 7, 0.005 μM, Table 6): 23810 pg/mL | P 24 (HIV-1 NL 4-3 [1]; Day 7, 0.01 μM, Table 6): 11810 pg/mL and 13740 pg/mL | P 24 (HIV-1 NL 4-3 [1]; Day 7, 0.5 μM, Table 6): 3.5 pg/mL and 5.6 pg/mL | P 24 (HIV-1 NL 4-3 [1]; Day 7, 1 μM, Table 6): 5.636 pg/mL and 4.8 pg/mL | P 24 (HIV-1 NL 4-3 [1]; Day 7, 5 μM, Table 6): 5.6 pg/mL and 3.2 pg/mL | syncitia formed, Day 4 (HIV-1 NDK; 0.005 μM): (+) | syncitia formed, Day 5 (HIV-1 NDK; 0.005 μM): + | syncitia formed, Day 6 (HIV-1 NDK; 0.005 μM): ++ | syncitia formed, Day 7 (HIV-1 NDK; 0.005 μM): ++ | P 24 (HIV-1 NDK; 0.005 μM): 23810 pg/mL | syncitia formed, Day 4 (HIV-1 NDK; 0.01 μM): (+) | syncitia formed, Day 5 (HIV-1 NDK; 0.01 μM): + | syncitia formed, Day 6 (HIV-1 NDK; 0.01 μM): ++ | syncitia formed, Day 7 (HIV-1 NDK; 0.01 μM): ++ | P 24 (HIV-1 NDK; 0.01 μM): 23810 pg/mL | syncitia formed, Day 4 (HIV-1 NDK; 0.05 μM): − | syncitia formed, Day 5 (HIV-1 NDK; 0.05 μM): (+) | syncitia formed, Day 6 (HIV-1 NDK; 0.05 μM): ++ | syncitia formed, Day 7 (HIV-1 NDK; 0.05 μM): ++ | P 24 (HIV-1 NDK; 0.05 μM): 11810 pg/mL and 15879 pg/mL | syncitia formed, Day 4 (HIV-1 NDK; 0.1 μM): − | syncitia formed, Day 5 (HIV-1 NDK; 0.1 μM): − | syncitia formed, Day 6 (HIV-1 NDK; 0.1 μM): + | syncitia formed, Day 7 (HIV-1 NDK; 0.1 μM): ++ | P 24 (HIV-1 NDK; 0.1 μM): 3507 pg/mL and 3670 pg/mL | syncitia formed, Day 4 (HIV-1 NDK; 0.5 μM): − | syncitia formed, Day 5 (HIV-1 NDK; 0.5 μM): − | syncitia formed, Day 6 (HIV-1 NDK; 0.5 μM): + | syncitia formed, Day 7 (HIV-1 NDK; 0.5 μM): ++ | P 24 (HIV-1 NDK; 0.5 μM): 2578 pg/mL and 3140 pg/mL | syncitia formed, Day 4 (HIV-1 NDK; 1 μM): − | syncitia formed, Day 5 (HIV-1 NDK; 1 μM): − | syncitia formed, Day 6 (HIV-1 NDK; 1 μM): − | syncitia formed, Day 7 (HIV-1 NDK; 1 μM): + | P 24 (HIV-1 NDK; 1 μM): 2810 pg/mL and 1840 pg/mL | syncitia formed, Day 4 (HIV-1 NDK; 5 μM): − | syncitia formed, Day 5 (HIV-1 NDK; 5 μM): − | syncitia formed, Day 6 (HIV-1 NDK; 5 μM): − | syncitia formed, Day 7 (HIV-1 NDK; 5 μM): (+) | P 24 (HIV-1 NDK; 5 μM): 284 pg/mL and 217 pg/mL | IC50 (HIV-1 NDK; HIV 1 NDK, Table 10): 20 nM | IC100 (HIV-1 NDK; HIV 1 NDK, Table 10): 5 µM | Day 4 syncitia formed (HIV-1 NL 4-3 [2]; 0.005 μM): − | Day 5 syncitia formed (HIV-1 NL 4-3 [2]; 0.005 μM): + | Day 6 syncitia formed (HIV-1 NL 4-3 [2]; 0.005 μM): ++ | Day 4 syncitia formed (HIV-1 NL 4-3 [2]; 0.01 μM): − | Day 5 syncitia formed (HIV-1 NL 4-3 [2]; 0.01 μM): + | Day 6 syncitia formed (HIV-1 NL 4-3 [2]; 0.01 μM): + | Day 7 syncitia formed (HIV-1 NL 4-3 [2]; 0.01 μM): ++ | Day 4 syncitia formed (HIV-1 NL 4-3 [2]; 0.05 μM): − | Day 5 syncitia formed (HIV-1 NL 4-3 [2]; 0.05 μM): − | Day 6 syncitia formed (HIV-1 NL 4-3 [2]; 0.05 μM): (+) | Day 7 syncitia formed (HIV-1 NL 4-3 [2]; 0.05 μM): + | Day 4 syncitia formed (HIV-1 NL 4-3 [2]; 0.1 μM): − | Day 5 syncitia formed (HIV-1 NL 4-3 [2]; 0.1 μM): − | Day 6 syncitia formed (HIV-1 NL 4-3 [2]; 0.1 μM): (+) | Day 7 syncitia formed (HIV-1 NL 4-3 [2]; 0.1 μM): + | Day 4 syncitia formed (HIV-1 NL 4-3 [2]; 0.5 μM): − | Day 5 syncitia formed (HIV-1 NL 4-3 [2]; 0.5 μM): − | Day 6 syncitia formed (HIV-1 NL 4-3 [2]; 0.5 μM): − | Day 7 syncitia formed (HIV-1 NL 4-3 [2]; 0.5 μM): − | Day 4 syncitia formed (HIV-1 NL 4-3 [2]; 1 μM): − | Day 5 syncitia formed (HIV-1 NL 4-3 [2]; 1 μM): − | Day 6 syncitia formed (HIV-1 NL 4-3 [2]; 1 μM): − | Day 7 syncitia formed (HIV-1 NL 4-3 [2]; 1 μM): − | Day 4 syncitia formed (HIV-1 NL 4-3 [2]; 5 μM): − | Day 5 syncitia formed (HIV-1 NL 4-3 [2]; 5 μM): − | Day 6 syncitia formed (HIV-1 NL 4-3 [2]; 5 μM): − | Day 7 syncitia formed (HIV-1 NL 4-3 [2]; 5 μM): −
